Results as given in patent US20250339531A1, “DUX4 POLYPEPTIDES AND NUCLEIC ACIDS FOR TREATING INFLAMMATORY AND AUTOIMMUNE CONDITIONS” (Fred Hutchinson Cancer Center, priority 2021, published 2025).
Entries after “also recorded” stand apart in the source; their conditions may differ. Where a SMILES comes first, the peptide text is derived from it. The star is where a group is joined. Cbz = O=C(OCc1ccccc1)*

What was measured:
[1] = system: MHC-I, PSMB8, PSMB9, and PSMB10; assay: Immunoblot of IFNG-induced MHC-I and immunoproteasome protein in MB135 myoblasts treated with inhibitors; type: cell-based, human; conditions: MB135iDUX4 cells, data not shown
[2] = system: MHC-I, PSMB8, PSMB9, and PSMB10; assay: as above; type: cell-based, human; conditions: MB135 myoblasts without DUX4 induction, agent then IFNG 16 h; 4EGI-1 at 50 uM
Procedure: To test if mTOR inactivation was sufficient to block MHC-I and immunoproteasome protein levels in the absence of DUX4, parental MB135 myoblasts were treated with mTOR inhibitors everolimus or Torin2. Everolimus is a second-generation rapamycin analog with binding specificity for mTORC1. […] To further validate the role of 4EBP1 in blocking MHC-I and immunoproteasome protein expression, MB135 cells were treated with 4EGI-1, a small molecule that pharmacologically mimics 4EBP function and inhibits eIF4E.
(§1) Protein samples were harvested in RIPA buffer [150 mM NaCl, 1% NP-40, 0.5% Na-deocycholate, 1% SDS, 25 mM Tris-HCl pH7.4] supplemented with protease and phosphatase inhibitor tablets (Pierce), followed by sonication in Diagenode Bioruptor. Lysate was cleared by centrifugation at 16000×g and quantified using a Pierce BCA assay (Thermo Fisher Scientific). Samples were run on NuPAGE precast polyacrylamide gels (Invitrogen) and transferred to PVDF membrane. Membranes were blocked in PBS containing 0.1% Tween-20 and 5% non-fat dry milk before overnight incubation at 4° C. with primary antibodies (see resource table for a list of antibodies used in this study). Membranes were incubated with horseradish peroxidase-conjugated secondary antibodies for 1 hour at room temperature and SuperSignal chemiluminescent substrate (Thermo Scientific) was used for detection on film with a Mini-medical 90 processor. Membranes were stripped with Restore Western Blot Stripping Buffer (Pierce).

HLA-E = assay: Immunoblot of non-canonical MHC class I HLA-E; type: cell-based, human; conditions: MB135iDUX4 cells
Procedure: as §1

ISG induction by IFNG = assay: RNA-seq of IFNG-induced genes in MB135 cells; type: cell-based, human; conditions: genes induced by IFNG (log 2 fold-change >3), doxycycline + IFNG
Procedure: RNA was extracted as described above from untreated, doxycycline-treated, IFNγ-treated, or doxycycline- and IFNγ-treated samples. RNA was submitted to the Fred Hutchinson Cancer Research Center Genomics Core for library preparation using the TruSeq3 Stranded mRNA kit (Illumina) followed by size and quality analysis by Tapestation (Agilent). Libraries were sequenced on a NextSeq P2-100 (Illumina).
Sequencing analysis was performed using R version 4.0.3 (R Core Team, 2020). Sequencing reads were trimmed using Trimmomatic (version 0.39) (Bolger et al., 2014, Trimmomatic: a flexible trimmer for Illumina sequence data. Bioinformatics 30, 2114-2120), and aligned to the Homo sapiens GRCh38 reference genome with the Rsubread aligner (Liao et al., 2019, The R package Rsubread is easier, faster, cheaper and better for alignment and quantification of RNA sequencing reads. Nucleic Acids Res 47, e47). Gene counts were analyzed using featureCounts (v2.0.1) (Liao et al., 2019, supra) and the Gencode v35 annotation file. Normalization and differential expression analysis were done with DESeq2 (v1.26.0) (Love et al., 2014, Moderated estimation of fold change and dispersion for RNA-seq data with DESeq2. Genome Biol 15, 550).

ZSCAN4 = assay: Activation of DUX4 target gene ZSCAN4, RT-qPCR; type: cell-based, human; conditions: MB135 cells ± doxycycline
Procedure: (§2) All myoblast experiments were conducted in immortalized MB135 or MB200 myoblast cell lines (isolated from a control or FSHD2 subject, respectively cultured in Ham's F-10 Nutrient Mix (Gibco) supplemented with 15% fetal bovine serum (Hyclone), 100 U/100 μg/ml penicillin/streptomycin (Gibco), 1 μM dexamethasone (Sigma), and 10 ng/ml recombinant human basic fibroblast growth factor (PeproTech). To differentiate the myoblasts to myotubes, media was changed to DMEM supplemented with 10 μg/ml insulin (Sigma) and 10 μg/ml transferrin (Sigma). Cell lines containing doxycycline-inducible transgenes were additionally cultured with 2 μg/mL puromycin (Sigma). Transgenes were induced with 1 μg/mL of doxycycline (Sigma) for 4 hours prior to other treatments for a total of 20 hrs. The Kitra-SRS cells (RRID:CVCL_YI69) were provided by Dr. H. Otani and Osaka University (Nakai et al., 2019) and were cultured in DMEM supplemented with 10% fetal bovine serum (Hyclone) and 100 U/100 μg/ml penicillin/streptomycin (Gibco). Biological replicates consisted of independent but parallel experiments, such as simultaneously stimulating three cell culture plates with IFNγ. Technical replicates consisted of repeat measurements of the same biological sample, such as loading the same biological sample in triplicate for analysis by RT-qPCR.
(§3) Myoblasts were transfected with either (final concentrations) 10 μM 2′,3′-cGAMP (Sigma Aldrich), 2 μg/mL poly(I:C) (Invitrogen), or 1 μg/mL 3′ppp-dsRNA RIG-I ligand (Dan Stetson Lab, UW) using Lipofectamine 2000 according to manufacturer's protocol, or were stimulated with 1000U IFNβ (PeproTech) or 200 ng/ml IFNγ (R+D Systems) by addition directly to cell culture medium. After 16 hours of immune stimulation, RNA was collected from cells using the NucleoSpin RNA Kit (Macherey-Nagel) according to manufacturer's instructions. RNA samples were quantified by nanodrop and 1 μg of RNA per sample was treated with DNase I Amplification Grade (Thermo Fisher), and then synthesized into cDNA using the Superscript IV First-Strand Synthesis System, including oligo dT primers (Invitrogen). qPCR was run in 384-well plates on an Applied Biosystems QuantStudio 6 Flex Real-Time PCR System (ABI) and analyzed in Microsoft Excel.

[3] = system: immunoproteasome subunits PSMB8, PSMB9, and PSMB10; assay: Immunoblot of IFNG-induced immunoproteasome subunits; type: cell-based, human; conditions: MB135 cells; for suppression of IFNG-induced immunoproteasome subunit protein, pulsed protocol: 4 h doxycycline pulse, later IFNG 16 h; for suppression of IFNG-induced immunoproteasome subunit protein, continuous protocol: doxycycline 20 h, IFNG last 16 h
Procedure: (§4) In the “continuous” protocol (similar to the experiments shown in the prior FIGS. 1, 2, 4, 5, and 6), doxycycline is added to induce DUX4 expression at time 0 and four hours later IFNG is added for an additional 16 hours, resulting in 20 hours of continuous DUX4 induction with the last 16 hrs exposed to IFNG.
(§5) In the “pulsed” protocol, doxycycline is added at time 0 to induce DUX4 expression, but after four hours the media is changed to remove the doxycycline, resulting in a pulse of DUX4 mRNA and protein sufficient to induce DUX4 target gene expression (see Resnick et al., Cell Rep. 2019 Nov. 12; 29(7):1812-1820.e5). IFNG is added at 28 hours for a period of 16 hours prior to harvesting the cells. […] This difference is not likely to be due to different amounts of the DUX4 and mutant DUX4 proteins because at the time of harvest both DUX4 and the F67A mutant DUX4 protein levels have declined to similarly low amounts relative to the continuous protocol, but could be due to the activation of DUX4 target genes by the full-length DUX4 since the H3.X/Y proteins show persistent expression in the pulsed protocol.
as §1

[4] = system: interferon-stimulated genes IFIH1, ISG20, CXCL9, and CD74; assay: IFNG induction of interferon-stimulated genes, RT-qPCR in MB135 cells with doxycycline-inducible transgenes; type: cell-based, human; conditions: MB135 cells, doxycycline-induced transgene, continuous protocol, IFNG 16 h
Procedure: as §2, §3

H3.X/Y = assay: Immunoblot of DUX4 target H3.X/Y proteins; type: cell-based, human; conditions: MB135 cells, continuous or pulsed protocol
Procedure: as §1

[5] = system: MHC class I proteins (HLA-A/B/C); assay: Immunoblot of IFNG-induced MHC class I protein, continuous or pulsed protocol, MB135 myoblasts; type: cell-based, human; conditions: MB135 cells; for suppression of IFNG-induced MHC class I protein, pulsed protocol: 4 h doxycycline pulse, IFNG added later for 16 h; for suppression of IFNG-induced MHC class I protein, continuous protocol: doxycycline 20 h, IFNG last 16 h
Procedure: as §4, §5, §1

[6] = system: de novo protein synthesis; assay: [35S]-methionine/cysteine metabolic labeling of nascent protein synthesis; type: cell-based; conditions: human myoblasts, 20-92 h after 4 h doxycycline pulse
Procedure: Cells were treated with and without a 4-hour pulse of doxycycline. Eight hours prior to harvest, cells were incubated in DMEM depleted for methionine and cysteine (Gibco) supplemented with 90 microcurie 35S-methionine/cysteine (Perkin Elmer) and 50 ng/ml […] (R&D Systems). Protein samples were harvested in RIPA buffer [150 mM NaCl, 1% NP-40, 0.5% Na-deocycholate, 1% SDS, 25 mM Tris-HCl pH7.4] supplemented with protease and phosphatase inhibitor tablets (Pierce), followed by sonication in Diagenode Bioruptor. Lysate was cleared by centrifugation at 16000×g and quantified using a Pierce BCA assay (Thermo Scientific). Samples were run on NuPAGE precast polyacrylamide gels (Invitrogen). Gels were stained with InstantBlue Coomassie (Abcam) following manufacturer protocol, placed on whatman paper, wrapped in plastic wrap, and dried. Gels were exposed to phosphor screen, imaged on Typhoon Trio imager, and analyzed with ImageQuant.

Compound: CO/C1=C\C(C)=C\[C@@H](C)[C@@H](O)[C@@H](C)C/C(C)=C/C=C/[C@H](OC)[C@@H]([C@@H](C)[C@@H](O)[C@H](C)[C@@]2(O)C[C@@H](O)[C@H](C)[C@@H](C(C)C)O2)OC1=O [Bafilomycin]
- rescue of post-transcriptional suppression after a pulse of DUX4 [1]: did not rescue post-transcriptional suppression

Compound: CC(C)C[C@@H](C=O)NC(=O)[C@H](CC(C)C)NC(=O)[C@H](CC(C)C)NC(=O)OCc1ccccc1 [MG132] (Cbz-Leu-Leu-Leu-aldehyde)
- effect on IFNG-induced MHC-I and immunoproteasome protein in the absence of DUX4 [2]: MHC class I induction, but not HLA-E is blocked
- rescue of post-transcriptional suppression after a pulse of DUX4 [1]: did not rescue post-transcriptional suppression
- effect on IFNG-induced HLA-E protein (HLA-E): stable expression of HLA-E protein

Compound: iDUX4-F67A: DUX4 with phenylalanine to alanine mutation in first homeodomain preventing DNA binding, SEQ ID NOS: 6-7
- IFNG-induced genes whose induction was suppressed more than 2-fold (percent) (ISG induction by IFNG): 70%
- IFNG-induced genes whose induction was suppressed more than 4-fold (percent) (ISG induction by IFNG): 41%
- transcriptional activation of DUX4 target gene ZSCAN4 (ZSCAN4): did not activate ZSCAN4
- transcriptional activation of DUX4 target gene ZSCAN4 (ZSCAN4; listed as DUX4-F67A): prevents the transcriptional activation of DUX4 regulated genes
- suppression of IFNG-induced immunoproteasome subunit protein, pulsed protocol ([3]; listed as DUX4(F67A)): protein levels were completely rescued; also recorded: neither suppression of PSMB9 or altered 4EBP1 phosphorylation was observed
- suppression of IFNG-induced immunoproteasome subunit protein, pulsed protocol ([3]; listed as DUX4 F67A): does not inhibit at all in the pulsed protocol
- suppression of IFNG-induced immunoproteasome subunit protein, continuous protocol ([3]; listed as DUX4(F67A)): suppressed IFNG-induced MHC-I and the immunoproteasome expression
- suppression of IFNG-induced immunoproteasome subunit protein, continuous protocol ([3]; listed as DUX4 F67A): only partially inhibits the IFNG induction of PSMB9 and PSMB10 in the continuous protocol
- suppression of IFNG induction of ISGs (IFIH1, ISG20, CXCL9, CD74) [4]: sufficient to block IFNG-induced ISG expression; also recorded: still suppressed ISG induction by IFNG
- suppression of IFNG induction of ISGs (IFIH1, ISG20, CXCL9, CD74) ([4]; listed as DUX4-F67A): fully suppresses the ISG response to IFNG
- induction of DUX4 target H3.X/Y proteins (H3.X/Y): does not induce expression of the DUX4-regulated H3.X/Y
- suppression of IFNG-induced MHC class I protein, pulsed protocol ([5]; listed as DUX4(F67A)): protein levels were completely rescued
- suppression of IFNG-induced MHC class I protein, pulsed protocol ([5]; listed as DUX4-F67A): does not suppress MHC class I in the pulse protocol
- suppression of IFNG-induced MHC class I protein, pulsed protocol ([5]; listed as F67A mutant): does not suppress MHC class I in the pulsed protocol
- suppression of IFNG-induced MHC class I protein, continuous protocol ([5]; listed as DUX4(F67A)): suppressed IFNG-induced MHC-I and the immunoproteasome expression
- suppression of IFNG-induced MHC class I protein, continuous protocol ([5]; listed as DUX4-F67A): suppress the IFNG induction of MHC class I expression; also recorded: inhibits MHC class I proteins in only the continuous protocol
- nascent protein synthesis by 35S labeling [6]: did not suppress protein translation; also recorded: no significant change
